Measured values reported in EPA's aquatic toxicity sets.

Columns and labels:
Pimephales promelas = assay: 96 h LC50 (-log10 mol/L); higher = more toxic
Daphnia magna = assay: 48 h LC50 (-log10 mol/L); higher = more toxic
Tetrahymena pyriformis = assay: 48 h IGC50 (-log10 mol/L); higher = more toxic

Compound	96 h LC50 (-log10 mol/L) (Pimephales promelas)	48 h LC50 (-log10 mol/L) (Daphnia magna)	48 h IGC50 (-log10 mol/L) (Tetrahymena pyriformis)
Cc1cccc([N+](=O)[O-])c1	3.64	4.04	3.42
CC(C)=O	0.854	0.673	0.796
Cc1cc(O)ccc1Cl	4.42	4.85	3.8
c1ccc2nc3ccccc3cc2c1	4.89	4.85	4.4
Oc1cc(Cl)c(Cl)cc1Cl	5.27	4.86	5.1
Cc1ccccc1	3.43	3	3.25
